In assay [1] the target is T1, HRV-14 3Cpro (Human rhinovirus 14, UniProt P03303).
T1 construct: most efficiently processed substrate by HRV-14 3Cpro (Acro, Beijing, China); purchased Acro, Beijing, China
Kind of assay: HRV-14 3Cpro enzyme inhibition assay (Dabcyl-[…]-Edans cleavage, fluorescence). Type of assay: biochemical. The following applies: for inhibition at 50 µM / Inhibition % HRV 3Cpro @ 50 μM: 50 μM compound, single point; for IC50: concentration-response, 50 μM to 0.617 μM, n = 5, mean ± SEM. The protocol:
In the in vitro cleavage assay, the peptide Dabcyl-[…]-Edans was identified as the most efficiently processed substrate by HRV-14 3Cpro (Acro, Beijing, China), and was subsequently utilized in the enzyme inhibition assay. A total of 44 candidate compounds were purchased from Topscience (TargetMol, United States). Dimethyl sulfoxide (DMSO) (Innochem, Beijing, China) served as the solvent for dissolving the compounds, and all solutions were stored at −20°C. The assays were conducted using 100 μL reaction samples, which comprised 1 μL of protease, 10 μL of a 10 μM substrate solution, and varying concentrations of the tested compounds (ranging from 50 μM to 0.617 μM) in a 50 mM Tris buffer at pH 7.0. To evaluate the inhibitory effects of the compounds, the protease and each compound were preincubated at 37°C for 30 min before the addition of the substrate. The reaction mixture was subsequently incubated for 1 h at 37°C. Fluorescence measurements were performed using a multifunction enzyme label reader (SpectraMax M5, Molecular Devices), set to an excitation wavelength of 340 nm and an emission wavelength of 490 nm. […] The inhibition rate was quantified according to the following formula: Inhibition rate 100%=RFUemzyme−RFUsample/RFUemzyme−RFUcontrol×100%

The next assay has as its system HRV-14. The following applies: ref Binford et al., 2007; Zalman et al., 2000; read-out: antiviral activity EC50; cited from earlier work.
Assay [2] addresses T1, HRV-14 3Cpro. Particulars: cited from earlier work.

Structures are written as SMILES. Where two headings read alike, the source gives them in different places.

T1 sequence (P03303 1538-1719): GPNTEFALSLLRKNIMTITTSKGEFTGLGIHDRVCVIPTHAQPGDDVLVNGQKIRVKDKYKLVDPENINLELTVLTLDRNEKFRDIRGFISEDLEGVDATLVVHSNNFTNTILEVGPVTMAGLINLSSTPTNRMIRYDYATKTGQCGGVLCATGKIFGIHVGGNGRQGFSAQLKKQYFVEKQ

One may read the inhibition as how much of the control response was suppressed. A high value points to a response far below the control. The term IC50 denotes the concentration that gives 50% inhibition. Take `O=C(COC(=O)[C@@H](CC(=O)c1ccccc1)Nc1ccc(F)cc1)c1ccccc1` [Compound S33]: at HRV-14 3Cpro [1], testing at 50 µM gave an inhibition of 96.5% and the IC50 stood at 11.3 ± 0.71 µM.

Take `CCC(CC)C(=O)Nc1cccc(C(=O)Nc2ccccc2C(=O)Nc2ccc(OC)cc2)c1` [Compound S43]: at HRV-14 3Cpro [1], the inhibition at 50 µM came out at 88.8%; the “Inhibition % HRV 3Cpro @ 50 μM” value worked out at 88.7%; the midpoint of inhibition, the IC50, lay at 2.33 ± 0.5 µM.

For the compound `Nc1c(NC(=O)NC[C@H]2CCCO2)c(-c2ccccc2)nn1-c1ccc(C(F)(F)F)cc1` [Compound S21], at HRV-14 3Cpro [1], the inhibition at 50 µM came out at 80.5%, the “Inhibition % HRV 3Cpro @ 50 μM” value amounted to 80.5% and the IC50 is 30.4 ± 0.67 µM.

The EC50 is the concentration that produces a half-maximal response. The compound `CCOC(=O)/C=C/[C@H](C[C@@H]1CCNC1=O)NC(=O)[C@@H](CC(=O)[C@@H](NC(=O)c1cc(C)on1)C(C)C)Cc1ccc(F)cc1` [Rupintrivir, reference compound] gave an IC50 against HRV-14 3Cpro [1] of 0.22 ± 0.34 µM. For the same compound, the half-maximal effective concentration (EC50) in the assay on HRV-14 was 0.012 µM.

On to `CCOc1ccc(NC(=O)[C@H](CC(C)C)NC(=O)[C@H]2CC[C@@H](C)CC2)cc1` [Compound S34], for which, on HRV-14 3Cpro [1], the inhibition at 50 µM was determined as 75.6%, the “Inhibition % HRV 3Cpro @ 50 μM” value is 75.5% and the IC50 was determined as 24.1 ± 0.55 µM.

Broadly, the pIC50 is −log10 of the IC50, conventionally taken in molar units. On to `O=c1cc(-c2cccnc2)[nH]c2cc(Cc3ccccc3)ccc12` [Compound 14], for which the pIC50 at HRV-14 3Cpro [2] (non-covalent inhibitor, ref Baxter et al., 2011) is on record as 4.7.

Take `Cc1occc1C(=O)N[C@@H]1C(=O)N[C@@H](Cc2ccc(F)cc2)C(=O)N[C@H](C=O)CCC(=O)N(C)Cc2cccc1c2` [compound 10]: the IC50 on HRV-14 3Cpro [2] (macrocyclic covalent inhibitor, ref Kawatkar et al., 2016, Namoto et al., 2018) is 0.008 µM.

The values above are taken from paper PMC12122428, “Discovery of non-covalent rhinovirus 3Cpro inhibitors by molecular docking, in vitro assays, molecular dynamics simulations and DFT analyses” (Frontiers in Pharmacology, 2025).
